According to patent US11104674B2 (Hoffmann-La Roche Inc., priority 2016, dated 2021):

Each compound was assayed on HBsAg (assay: HBsAg assay (chemiluminescence immunoassay of secreted HBsAg)). Conditions: Hepatitis B virus, HepG2.2.15, HBsAg secretion, HepG2.2.15 cells, CLIA of culture supernatant.
Type: cell-based, HBV
How it was run: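 HepG2.2.15 cells, in duplicate, treated with three-fold serial compound dilutions (1% DMSO final); secreted HBsAg in supernatant quantified by chemiluminescence immunoassay; IC50 is the concentration reducing HBsAg secretion by 50% versus the DMSO control.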
`CC1c2cnc(-c3ncccn3)nc2CCN1c1cc(F)cc(NC2CCOCC2)n1` (centres unmarked) [Example 49, 4-fluoro-6-(5-methyl-2-pyrimidin-2-yl-7,8-dihydro-5H-pyrido[4,3-d]pyrimidin-6-yl)-N-tetrahydropyran-4-yl-pyridin-2-amine] showed an IC50 of 56 nM. For `CC1c2cnc(-c3ncccn3)nc2CCN1c1cc(F)cc(N2CCCC2C(=O)O)n1` (centres unmarked) [Example 33, 1-[4-fluoro-6-(5-methyl-2-pyrimidin-2-yl-7,8-dihydro-5H-pyrido[4,3-d]pyrimidin-6-yl)-2-pyridyl]pyrrolidine-2-carboxylic acid], the IC50 was 93 nM. `CC1c2cnc(-c3ncccn3)nc2CCN1c1cc(F)cc(N2CCC2)n1` (centres unmarked) [Example 109, 6-[6-(azetidin-1-yl)-4-fluoro-2-pyridyl]-5-methyl-2-pyrimidin-2-yl-7,8-dihydro-5H-pyrido[4,3-d]pyrimidine] was tested, and the IC50 was 21 nM. With `CC1C(=O)NCCN1c1cc(F)nc(N2CCc3nc(-c4ncccn4)ncc3C2C)c1` (centres unmarked) [Example 117, 4-[2-fluoro-6-(5-methyl-2-pyrimidin-2-yl-7,8-dihydro-5H-pyrido[4,3-d]pyrimidin-6-yl)-4-pyridyl]-3-methyl-piperazin-2-one] the IC50 was 106 nM. Work on `CC1c2cnc(-c3ncccn3)nc2CCN1c1cc(N2CC(CO)C2)cc(F)n1` (centres unmarked) [Example 135, [1-[2-fluoro-6-(5-methyl-2-pyrimidin-2-yl-7,8-dihydro-5H-pyrido[4,3-d]pyrimidin-6-yl)-4-pyridyl]azetidin-3-yl]methanol] yielded an IC50 of 8 nM. `COC1CCN(c2cc(N3CCc4nc(-c5ncccn5)ncc4C3C)cc(F)n2)C1` (centres unmarked) [Example 108, 6-[2-Fluoro-6-(3-methoxypyrrolidin-1-yl)-4-pyridyl]-5-methyl-2-pyrimidin-2-yl-7,8-dihydro-5H-pyrido[4,3-d]pyrimidine] showed an IC50 of 13 nM. Work on `CC1c2cnc(-c3ncccn3)nc2CCN1c1cc(N2CCC(C(N)=O)CC2)cc(F)n1` (centres unmarked) [Example 56, 1-[2-fluoro-6-(5-methyl-2-pyrimidin-2-yl-7,8-dihydro-5H-pyrido[4,3-d]pyrimidin-6-yl)-4-pyridyl]piperidine-4-carboxamide] yielded an IC50 of 37 nM. `CC1c2cnc(-c3ncccn3)nc2CCN1c1cc(N2CC(O)C2)cc(F)n1` (centres unmarked) [Example 124, 1-[2-Fluoro-6-(5-methyl-2-pyrimidin-2-yl-7,8-dihydro-5H-pyrido[4,3-d]pyrimidin-6-yl)-4-pyridyl]azetidin-3-ol] gave an IC50 of 33 nM. Compound `CC(=O)N1CC(Nc2cc(F)cc(N3CCc4nc(-c5ncccn5)ncc4C3C)n2)C1` (centres unmarked) [Example 139, 1-[3-[[4-fluoro-6-(5-methyl-2-pyrimidin-2-yl-7,8-dihydro-5H-pyrido[4,3-d]pyrimidin-6-yl)-2-pyridyl]amino]azetidin-1-yl]ethanone] has an IC50 of 1550 nM. Compound `CC1CN(c2cc(F)cc(N3CCc4nc(-c5ncccn5)ncc4C3C)n2)CC(=O)N1` (centres unmarked) [Example 133, 4-[4-fluoro-6-(5-methyl-2-pyrimidin-2-yl-7,8-dihydro-5H-pyrido[4,3-d]pyrimidin-6-yl)-2-pyridyl]-6-methyl-piperazin-2-one] has an IC50 of 9 nM. `CC1c2cnc(-c3ncccn3)nc2CCN1c1cc(F)cc(N2CC(C(N)=O)C2)n1` (centres unmarked) [Example 81, 1-[4-fluoro-6-(5-methyl-2-pyrimidin-2-yl-7,8-dihydro-5H-pyrido[4,3-d]pyrimidin-6-yl)-2-pyridyl]azetidine-3-carboxamide] was tested, and the IC50 was 206 nM. `CC1c2cnc(-c3ncccn3)nc2CCN1c1cc(F)cc(N2CCOC(CO)C2)n1` (centres unmarked) [Example 25, [4-[4-fluoro-6-(5-methyl-2-pyrimidin-2-yl-7,8-dihydro-5H-pyrido[4,3-d]pyrimidin-6-yl)-2-pyridyl]morpholin-2-yl]methanol] was tested, and the IC50 was 46 nM. `CC1COCCN1c1cc(F)nc(N2CCc3nc(-c4ncccn4)ncc3C2C)c1` (centres unmarked) [Example 40, 4-[2-fluoro-6-(5-methyl-2-pyrimidin-2-yl-7,8-dihydro-5H-pyrido[4,3-d]pyrimidin-6-yl)-4-pyridyl]-3-methyl-morpholine] showed an IC50 of 10 nM. In the case of `CC1c2cnc(-c3ncccn3)nc2CCN1c1cc(F)cc(N2CC(NS(C)(=O)=O)C2)n1` (centres unmarked) [Example 118, N-[1-[4-fluoro-6-(5-methyl-2-pyrimidin-2-yl-7,8-dihydro-5H-pyrido[4,3-d]pyrimidin-6-yl)-2-pyridyl]azetidin-3-yl]methanesulfonamide], the IC50 is reported as 94 nM. With `CC1c2cnc(-c3ncccn3)nc2CCN1c1cc(F)cc(N2CCC(C(N)=O)C2)n1` (centres unmarked) [Example 45, 1-[4-fluoro-6-(5-methyl-2-pyrimidin-2-yl-7,8-dihydro-5H-pyrido[4,3-d]pyrimidin-6-yl)-2-pyridyl]pyrrolidine-3-carboxamide] the IC50 was 18 nM. `CC1c2cnc(-c3ccccn3)nc2CCN1c1cc(F)cc(N2CCN(S(C)(=O)=O)CC2)n1` (centres unmarked) [Example 72, 6-[4-fluoro-6-(4-methylsulfonylpiperazin-1-yl)-2-pyridyl]-5-methyl-2-(2-pyridyl)-7,8-dihydro-5H-pyrido[4,3-d]pyrimidine] was tested, and the IC50 was 58 nM. Work on `CC1COCCN1c1cc(F)cc(N2CCc3nc(-c4ncccn4)ncc3C2C)n1` (centres unmarked) [Example 41, 4-[4-fluoro-6-(5-methyl-2-pyrimidin-2-yl-7,8-dihydro-5H-pyrido[4,3-d]pyrimidin-6-yl)-2-pyridyl]-3-methyl-morpholine] yielded an IC50 of 17 nM. `CC1c2cnc(-c3ncccn3)nc2CCN1c1cc(NC2CNC2)cc(F)n1` (centres unmarked) [Example 121, N-(azetidin-3-yl)-2-fluoro-6-(5-methyl-2-pyrimidin-2-yl-7,8-dihydro-5H-pyrido[4,3-d]pyrimidin-6-yl)pyridin-4-amine] was tested, and the IC50 was 496 nM. `CC1c2cnc(-c3ncccn3)nc2CCN1c1cc(N2CCOC(CO)C2)cc(F)n1` (centres unmarked) [Example 24, [4-[2-fluoro-6-(5-methyl-2-pyrimidin-2-yl-7,8-dihydro-5H-pyrido[4,3-d]pyrimidin-6-yl)-4-pyridyl]morpholin-2-yl]methanol] was tested, and the IC50 was 38 nM. `CC1c2cnc(-c3ncccn3)nc2CCN1c1cc(F)cc(N2CCN(S(C)(=O)=O)C(C)C2)n1` (centres unmarked) [Example 105, 6-[4-fluoro-6-(3-methyl-4-methylsulfonyl-piperazin-1-yl)-2-pyridyl]-5-methyl-2-pyrimidin-2-yl-7,8-dihydro-5H-pyrido[4,3-d]pyrimidine] was tested, and the IC50 was 23 nM. Compound `CC1c2cnc(-c3ncccn3)nc2CCN1c1cc(F)cc(N2CCC(C(N)=O)CC2)n1` (centres unmarked) [Example 55, 1-[4-fluoro-6-(5-methyl-2-pyrimidin-2-yl-7,8-dihydro-5H-pyrido[4,3-d]pyrimidin-6-yl)-2-pyridyl]piperidine-4-carboxamide] has an IC50 of 72 nM. `CC1c2cnc(-c3ncccn3)nc2CCN1c1cc(N2CCOC(CC(=O)O)C2)cc(F)n1` (centres unmarked) [Example 28, 2-[4-[2-fluoro-6-(5-methyl-2-pyrimidin-2-yl-7,8-dihydro-5H-pyrido[4,3-d]pyrimidin-6-yl)-4-pyridyl]morpholin-2-yl]acetic acid] gave an IC50 of 1820 nM. `CC1c2cnc(-c3ccccn3)nc2CCN1c1cc(N2CCN(S(C)(=O)=O)CC2)cc(F)n1` (centres unmarked) [Example 71, 6-[6-fluoro-4-(4-methylsulfonylpiperazin-1-yl)-2-pyridyl]-5-methyl-2-(2-pyridyl)-7,8-dihydro-5H-pyrido[4,3-d]pyrimidine] was tested, and the IC50 was 8 nM. Work on `CC1c2cnc(-c3ncccn3)nc2CCN1c1cc(N2CCC3(CCOC3)C2)cc(F)n1` (centres unmarked) [Example 12, 7-[2-fluoro-6-(5-methyl-2-pyrimidin-2-yl-7,8-dihydro-5H-pyrido[4,3-d]pyrimidin-6-yl)-4-pyridyl]-2-oxa-7-azaspiro[4.4]nonane] yielded an IC50 of 8 nM. Work on `CC1c2cnc(-c3ncccn3)nc2CCN1c1cc(NC(=O)CO)cc(F)n1` (centres unmarked) [Example 3, N-[2-Fluoro-6-(5-methyl-2-pyrimidin-2-yl-7,8-dihydro-5H-pyrido[4,3-d]pyrimidin-6-yl)-4-pyridyl]-2-hydroxy-acetamide] yielded an IC50 of 60 nM. For `CC1c2cnc(-c3ncccn3)nc2CCN1c1cc(F)cc(NC2CNC2)n1` (centres unmarked) [Example 120, N-(azetidin-3-yl)-4-fluoro-6-(5-methyl-2-pyrimidin-2-yl-7,8-dihydro-5H-pyrido[4,3-d]pyrimidin-6-yl)pyridin-2-amine], the IC50 was 33300 nM. `CC1c2cnc(-c3ncccn3)nc2CCN1c1cc(F)nc(N2CC(F)C2)c1` (centres unmarked) [Example 150, 6-[2-Fluoro-6-(3-fluoroazetidin-1-yl)-4-pyridyl]-5-methyl-2-pyrimidin-2-yl-7,8-dihydro-5H-pyrido[4,3-d]pyrimidine] gave an IC50 of 20 nM. For `CC1c2cnc(-c3ncccn3)nc2CCN1c1cc(F)cc(N2CCOC(C)(C)C2)n1` (centres unmarked) [Example 9, 4-[4-fluoro-6-(5-methyl-2-pyrimidin-2-yl-7,8-dihydro-5H-pyrido[4,3-d]pyrimidin-6-yl)-2-pyridyl]-2,2-dimethyl-morpholine], the IC50 was 29 nM. `CC1c2cnc(-c3ncccn3)nc2CCN1c1cc(N(C)S(=O)(=O)c2ccccc2)cc(F)n1` (centres unmarked) [Example 161, N-[2-Fluoro-6-(5-methyl-2-pyrimidin-2-yl-7,8-dihydro-5H-pyrido[4,3-d]pyrimidin-6-yl)-4-pyridyl]-N-methyl-benzenesulfonamide] gave an IC50 of 5 nM. `CC1c2cnc(-c3ncccn3)nc2CCN1c1cc(N2C3CCC2COC3)cc(F)n1` (centres unmarked) [Example 10, 8-[2-fluoro-6-(5-methyl-2-pyrimidin-2-yl-7,8-dihydro-5H-pyrido[4,3-d]pyrimidin-6-yl)-4-pyridyl]-3-oxa-8-azabicyclo[3.2.1]octane] was tested, and the IC50 was 39 nM. `CC1c2cnc(-c3ncccn3)nc2CCN1c1cc(N2CC(NS(C)(=O)=O)C2)cc(F)n1` (centres unmarked) [Example 119, N-[1-[2-fluoro-6-(5-methyl-2-pyrimidin-2-yl-7,8-dihydro-5H-pyrido[4,3-d]pyrimidin-6-yl)-4-pyridyl]azetidin-3-yl]methanesulfonamide] showed an IC50 of 57 nM. Work on `CC1c2cnc(-c3ncccn3)nc2CCN1c1cc(NC2CCN(S(C)(=O)=O)CC2)cc(F)n1` (centres unmarked) [Example 96, 2-Fluoro-6-(5-methyl-2-pyrimidin-2-yl-7,8-dihydro-5H-pyrido[4,3-d]pyrimidin-6-yl)-N-(1-methylsulfonyl-4-piperidyl)pyridin-4-amine] yielded an IC50 of 125 nM.
